{"source": "patent US20230233425A1", "about": "“USE OF VOLATILE COMPOSITIONS TO LIMIT OR ELIMINATE THE PERCEPTION OF MALODOR” (Firmenich SA, priority 2017, published 2023)", "key": {"[1]": {"test_system": "OR2W1 or the OR1A1 olfactory receptor", "experiment": "1-octen-3-ol olfactory receptor antagonist cell-based dose-response vs 1-octen-3-ol EC80", "conditions": "for IC50: 1-octen-3-ol at EC80; for % Inhibition: maximum inhibition normalized to baseline agonist activity", "from_the_text": "Each cell line was screened with a volatile compound library for their inhibitory properties and potential 1-octen-3-ol smell inhibition.\nSingle concentration monitoring of the 1-octen-3-ol induced cell activity in the presence or absence of a test compound allowed for the identification of compounds with a putative suppression or inhibitory effect."}, "[2]": {"test_system": "1-octen-3-ol mushroom/earthy/fungal odor perception", "experiment": "Human sensory performance of test compounds with and without 1-octen-3-ol", "type": "in vivo", "conditions": "for % Mushroom/Earthy/Fungal Odor: Test Compound Only"}, "[3]": {"test_system": "geonol malodor (earthy/moss odor) perception", "experiment": "Sensory evaluation of geonol earthy/moss odor in iso-intense binary mixtures (glass jars)", "type": "in vivo, human", "conditions": "iso-intense binary mixture", "text": "(§1) Sensory Evaluation: Five 16 oz glass jars containing either REF (geonol only), geonol only control, antagonist only, mixture of geonol and isointense antagonist, or mixture of geonol and low intensity antagonist were presented to the panelists (last four samples were randomized across panelists). The panelists were asked to familiarize themselves with the earthy/moss odor quality from the REF jar first, then rate the pleasantness, earthy/moss odor intensity and overall odor intensity of the next four samples on a 0-10 linear scale. The inter-stimulus interval between the samples was two minutes to avoid adaptation."}, "[4]": {"test_system": "geonol earthy/moss odor perception", "experiment": "Human sensory performance of test compounds with and without geonol", "type": "in vivo", "conditions": "for % Earthy/Moss Odor: Test Compound Only", "text": "as §1, with “adaptation. […]” for “adaptation.”\nThe results are shown in Tables 16 and 17, and FIGS. 3 to 5."}, "[5]": {"test_system": "OR11A1, or the OR2M3 olfactory receptor", "experiment": "Geonol olfactory receptor antagonist cell-based screening, inhibitory dose-response vs geonol EC80", "parameters": "species or system human", "conditions": "geonol at EC80; for IC50: read-out: IC50"}, "[6]": {"biological_target": "T1, OR51E1 olfactory receptor (Homo sapiens, UniProt Q8TCB6)", "T1 construct": "expressed in transfected cells", "T1 sequence (Q8TCB6 1-318)": "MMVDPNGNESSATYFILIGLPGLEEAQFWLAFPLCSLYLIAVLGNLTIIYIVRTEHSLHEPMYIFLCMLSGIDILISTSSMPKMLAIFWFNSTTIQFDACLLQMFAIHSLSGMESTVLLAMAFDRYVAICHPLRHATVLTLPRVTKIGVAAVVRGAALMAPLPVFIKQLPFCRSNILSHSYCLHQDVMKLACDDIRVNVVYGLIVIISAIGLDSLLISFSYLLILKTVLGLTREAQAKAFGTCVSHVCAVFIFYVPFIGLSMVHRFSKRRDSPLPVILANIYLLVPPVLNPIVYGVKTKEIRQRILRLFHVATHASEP", "experiment": "Butyric acid olfactory receptor antagonist cell-based dose-response vs butyric acid EC80", "conditions": "butyric acid at EC80; Table 5"}, "[7]": {"test_system": "1-octen-3-ol receptors OR2W1, Olfr93, Olfr120, Olfr398", "experiment": "Antagonists of 1-octen-3-ol receptors (Example 11)", "type": "cell-based, mouse and human", "parameters": "Inhibition(%): concentration or dose not given beside the values", "conditions": "Table 19"}}, "note": "Marks after values point to notes of the source that are not given here.", "data": [{"compound": "1,4,8-trimethyl-13-oxabicyclo[10.1.0]trideca-4,8-diene; 1,5,8-trimethyl-13-oxabicyclo[10.1.0]trideca-4,8-diene", "values": [{"measurement": "IC50", "setting": "[1]", "value": 266, "unit": "µM"}, {"measurement": "% Inhibition", "setting": "[1]", "value": 70.92, "unit": "%"}, {"measurement": "% Mushroom/Earthy/Fungal Odor Remaining", "setting": "[2]; Low Dilution Test Compound + 1-octen-3-ol (0.15%)", "value": 93.80, "unit": "%"}, {"measurement": "% Mushroom/Earthy/Fungal Odor Remaining", "setting": "[2]; Medium Dilution Test Compound + 1-octen-3-ol (0.15%)", "value": 79.50, "unit": "%"}, {"measurement": "% Mushroom/Earthy/Fungal Odor", "setting": "[2]", "value": 30.20, "unit": "%"}, {"measurement": "% Remaining in human sensory tests", "setting": "[3]", "value": 85, "unit": "%"}, {"measurement": "% Earthy/Moss Odor Remaining", "setting": "[4]; Low Dilution Test Compound + Geonol (0.1%)", "value": 92.00, "unit": "%"}, {"measurement": "% Earthy/Moss Odor Remaining", "setting": "[4]; Medium Dilution Test Compound + Geonol (0.1%)", "value": 91.50, "unit": "%"}, {"measurement": "% Earthy/Moss Odor", "setting": "[4]", "value": 43.30, "unit": "%"}, {"measurement": "% Inhibition", "setting": "[5]", "value": 50, "unit": "%"}, {"measurement": "IC50", "setting": "[5]", "value": 81, "unit": "µM"}]}, {"compound": "CC=CC(=O)C1C(C)C=CCC1(C)C", "note": "(centres unmarked) [1-(2,6,6-trimethyl-1-cyclohex-3-enyl)but-2-en-1-one]", "values": [{"measurement": "IC50", "setting": "[6]", "value": 210, "unit": "µM"}, {"measurement": "% Mushroom/Earthy/Fungal Odor", "setting": "[2]", "value": 24.00, "unit": "%"}, {"measurement": "% Remaining in human sensory tests", "setting": "[3]", "value": "66* %"}, {"measurement": "% Earthy/Moss Odor", "setting": "[4]", "value": 31.80, "unit": "%"}, {"measurement": "% Inhibition", "setting": "[5]", "value": 10, "unit": "%"}, {"measurement": "IC50", "setting": "[5]", "value": 301, "unit": "µM"}]}, {"compound": "CC(C)(C)c1ccccc1O", "note": "[2-tertbutyl phenol]", "values": [{"measurement": "IC50", "setting": "[1]", "value": 37, "unit": "µM"}, {"measurement": "% Inhibition", "setting": "[1]", "value": 100.34, "unit": "%"}, {"measurement": "% Remaining in human sensory tests", "setting": "[3]", "value": "46* %"}, {"measurement": "% Earthy/Moss Odor", "setting": "[4]", "value": 41.30, "unit": "%"}, {"measurement": "% Inhibition", "setting": "[5]", "value": 100, "unit": "%"}, {"measurement": "IC50", "setting": "[5]", "value": 88, "unit": "µM"}]}, {"compound": "CCCCCCc1ccc(C)nc1", "note": "[5-hexyl-2-methylpyridine 10% Citr, 5-hexyl-2-methylpyridine]", "values": [{"measurement": "% Remaining in human sensory tests", "setting": "[3]", "value": 37, "unit": "%"}, {"measurement": "% Earthy/Moss Odor", "setting": "[4]", "value": 46.40, "unit": "%"}, {"measurement": "IC50", "setting": "[5]", "value": 555, "unit": "µM"}]}, {"compound": "CC(=O)CCC=C(C)CCC=C(C)C", "note": "[6,10-dimethylundeca-5,9-dien-2-one]", "values": [{"measurement": "% Remaining in human sensory tests", "setting": "[3]", "value": "45* %"}, {"measurement": "% Earthy/Moss Odor", "setting": "[4]", "value": 52.80, "unit": "%"}, {"measurement": "% Inhibition", "setting": "[5]", "value": 50, "unit": "%"}, {"measurement": "IC50", "setting": "[5]", "value": 133, "unit": "µM"}]}, {"compound": "CC(=O)OC(c1ccccc1)C(Cl)(Cl)Cl", "note": "(centres unmarked) [(2,2,2-trichloro-1-phenylethyl) acetate]", "values": [{"measurement": "% Mushroom/Earthy/Fungal Odor", "setting": "[2]", "value": 30.00, "unit": "%"}, {"measurement": "% Remaining in human sensory tests", "setting": "[3]", "value": 61, "unit": "%"}, {"measurement": "% Earthy/Moss Odor", "setting": "[4]", "value": 38.60, "unit": "%"}]}, {"compound": "Cc1ccc2c(c1)CC(C)(CO)C2", "note": "(centres unmarked) [(2,5-dimethyl-1,3-dihydroinden-2-yl)methanol]", "values": [{"measurement": "% Mushroom/Earthy/Fungal Odor", "setting": "[2]", "value": 36.30, "unit": "%"}, {"measurement": "% Remaining in human sensory tests", "setting": "[3]", "value": "37* %"}, {"measurement": "% Earthy/Moss Odor", "setting": "[4]", "value": 41.70, "unit": "%"}]}, {"compound": "CC=Cc1ccc(OCC)c(O)c1", "note": "[Compound 2-ethoxy-5-prop-1-enylphenol, 2-ethoxy-5-prop-1-enylphenol]", "values": [{"measurement": "% Mushroom/Earthy/Fungal Odor", "setting": "[2]", "value": 23.20, "unit": "%"}, {"measurement": "% Remaining in human sensory tests", "setting": "[3]", "value": "34* %"}, {"measurement": "% Earthy/Moss Odor", "setting": "[4]", "value": 27.10, "unit": "%"}, {"measurement": "% Inhibition", "setting": "[5]", "value": 33, "unit": "%"}, {"measurement": "IC50", "setting": "[5]", "value": 111, "unit": "µM"}]}, {"compound": "O=C1CCC=CCCCCCCCCCC1", "note": "[cyclopentadec-4-en-1-one]", "values": [{"measurement": "% Mushroom/Earthy/Fungal Odor", "setting": "[2]", "value": 25.80, "unit": "%"}, {"measurement": "% Remaining in human sensory tests", "setting": "[3]", "value": 47, "unit": "%"}, {"measurement": "IC50", "setting": "[7]", "value": 57.8, "unit": "µM"}, {"measurement": "Inhibition(%)", "setting": "[7]", "value": 130, "unit": "%"}, {"measurement": "% Earthy/Moss Odor", "setting": "[4]", "value": 49.90, "unit": "%"}, {"measurement": "% Inhibition", "setting": "[5]", "value": 45, "unit": "%"}, {"measurement": "IC50", "setting": "[5]", "value": 61, "unit": "µM"}]}, {"compound": "CCC=CCCC=CC=O", "note": "[nona-2,6-dienal]", "values": [{"measurement": "% Remaining in human sensory tests", "setting": "[3]", "value": 67, "unit": "%"}, {"measurement": "% Earthy/Moss Odor", "setting": "[4]", "value": 65.40, "unit": "%"}, {"measurement": "% Inhibition", "setting": "[5]", "value": 80, "unit": "%"}, {"measurement": "IC50", "setting": "[5]", "value": 156, "unit": "µM"}]}, {"compound": "Cc1ccc(C(C)C)c(O)c1", "note": "[thymol, 5-Methyl-2-(propan-2-yl)phenol]", "values": [{"measurement": "% Remaining in human sensory tests", "setting": "[3]", "value": 53, "unit": "%"}, {"measurement": "% Earthy/Moss Odor", "setting": "[4]", "value": 54.70, "unit": "%"}, {"measurement": "% Inhibition", "setting": "[5]", "value": 100, "unit": "%"}, {"measurement": "IC50", "setting": "[5]", "value": 107, "unit": "µM"}]}]}
